Source: patent US10604554B2, “Double-acylated GLP-1 derivatives” (Novo Nordisk A/S, priority 2012, dated 2020)

Experiments:
[1] = target: T1, human GLP-1 receptor (Homo sapiens, UniProt P43220); assay: GLP-1 receptor binding (SPA, displacement of 125I-GLP-1)
T1 construct: expressed in transfected cells; host or cells: BHK cells, clone FCW467-12A/KZ10-1 (parent line BHKTS13), further transfected with CRE luciferase
Experimental: The purpose of this experiment is to investigate the binding to the GLP-1 receptor of the GLP-1 derivatives, and how the binding is potentially influenced by the presence of albumin. This is done in an in vitro experiment as described below.
In order to test the binding of the derivatives to albumin, the assay was performed with a low concentration of albumin (0.001%—corresponding to the residual amount thereof in the tracer), as well as with a high concentration of albumin (2.0% added). A shift in the binding affinity, IC50, is an indication that the peptide in question binds to albumin, and thereby a prediction of a potential protracted pharmacokinetic profile of the peptide in question in animal models.
Species (in vitro): Hamster
Biological End Point: Receptor Binding
A stable transfected cell line and a high expressing clone were selected for screening. The cells were grown at 5% CO2 in DMEM, 10% FCS, 1% Pen/Strep (Penicillin/Streptomycin) and 1.0 mg/ml of the selection marker G418.
The cells (approx. 80% confluence) were washed twice in PBS and harvested with Versene (aqueous solution of the tetrasodium salt of ethylenediaminetetraacetic acid), following which they were separated by centrifugation at 1000 rpm for 5 min. The cells/cell pellet must be kept on ice to the extent possible in the subsequent steps. The cell pellet was homogenised with Ultrathurrax for 20-30 seconds in a suitable amount of Buffer 1 (depending on the amount of cells, but e.g. 10 ml). The homogenate was centrifuged at 20000 rpm for 15 minutes. The pellet was resuspended (homogenised) in 10 ml Buffer 2 and re-centrifuged. This step was repeated once more. The resulting pellet was resuspended in Buffer 2, and the protein concentration was determined. The membranes were stored at minus 80° C.
Buffer 1:20 mM Na-HEPES+10 mM EDTA, pH 7.4
Buffer 2:20 mM Na-HEPES+0.1 mM EDTA, pH 7.4
Test compounds, membranes, SPA-particles and [^125I]-GLP-1(7-36)NH2 were diluted in assay buffer. 50 ul (micro liter) HSA (“high albumin” experiment containing 2% HSA), or buffer (“low albumin” experiment containing 0.001% HSA) was added to Optiplate, and 25 ul of test compounds were added. 5-10 ug membrane protein/sample was added (50 ul) corresponding to 0.1-0.2 mg protein/ml (to be preferably optimised for each membrane preparation). SPA-particles (Wheatgerm agglutinin SPA beads, Perkin Elmer, # RPNQ0001) were added in an amount of 0.5 mg/well (50 ul). The incubation was started with [^125I]-GLP-1]-(7-36)NH2 (final concentration 0.06 nM corresponding to 49.880 DPM, 25 ul). The plates were sealed with PlateSealer and incubated for 120 minutes at 30° C. while shaking. The plates were centrifuged (1500 rpm, 10 min) and counted in Topcounter.

[2] = target: T1, human GLP-1 receptor; assay: In vitro potency (CRE luciferase; whole cells); type: cell-based; set-up: EC50/pM (ratio 1% HSA/0% HSA): unit not given here; details: for EC50: BHK cells; for EC50/pM (ratio 1% HSA/0% HSA): ratio of EC50 at 1% HSA to EC50 at 0% HSA
Experimental: The purpose of this example is to test the activity, or potency, of the GLP-1 derivatives in vitro. The in vitro potency is the measure of human GLP-1 receptor activation in a whole cell assay.
In vitro potency was determined by measuring the response of human GLP-1 receptor in a reporter gene assay. The assay was performed in a stably transfected BHK cell line that expresses the human GLP-1 receptor and contains the DNA for the cAMP response element (CRE) coupled to a promoter and the gene for firefly luciferase (CRE luciferase). When the human GLP-1 receptor was activated it results in the production of cAMP, which in turn results in the luciferase protein being expressed. When assay incubation was completed the luciferase substrate (luciferin) was added and the enzyme converts luciferin to oxyluciferin and produces bioluminescence. The luminescence was measured and was the readout for the assay.
An increase of the in vitro potency, EC50 value, in the presence of serum albumin indicates an affinity to serum albumin and represents a method to predict a protracted pharmacokinetic profile of the test substance in animal models.
The cells were cultured at 5% CO2 in cell culture medium. They were aliquoted and stored in liquid nitrogen. Before each assay an aliquot was taken up and washed twice in PBS before being suspended at the desired concentration in the assay specific buffer.
The following chemicals were used in the assay: Pluronic F-68 (10%) (Gibco 2404), human serum albumin (HSA) (Sigma A9511), ovalbumin (Sigma A5503), DMEM w/o phenol red (Gibco 11880-028), 1 M Hepes (Gibco 15630), Glutamax 100× (Gibco 35050) and steadylite plus (PerkinElmer 6016757).
1) Cell stocks were thawed in a 37° C. water bath.
2) Cells were washed three times in PBS.
3) The cells were counted and adjusted to 5×10^3 cells/50 μl (1×10^5 cells/ml) in assay medium. A 50 μl aliquot of cells was transferred to each well in the assay plate.
4) Stocks of the test compounds and reference compounds were diluted to a concentration of 0.2 μM in 0% assay buffer for the 0% HSA CRE luciferase assay and 1% assay buffer for the HSA CRE luciferase assay. […] 5) A 50 μl aliquot of compound or blank was transferred in triplicate from the dilution plate to the assay plate. […] 7) The assay plate was removed from the incubator and allowed to stand at room temperature for 15 min. 8) A 100 μl aliquot of steadylite plus reagent was added to each well of the assay plate (reagent was light sensitive). 9) Each assay plate was covered with aluminum foil to protect it from light and shaken for 30 min at room temperature. 10) Each assay plate was read in a Packard TopCount NXT instrument. Calculations and Results
The data from the TopCount instrument were transferred to GraphPad Prism software. The software averages the values for each replicate and performs a non-linear regression.

[3] = Receptor binding affinity IC50 (high HSA), 2.0% HSA (high albumin)
[4] = Receptor binding affinity IC50 (low HSA), 0.001% HSA (low albumin)
[5] = In vitro potency (CRE luciferase) EC50 (0% HSA), 0% HSA
[6] = In vitro potency (CRE luciferase) EC50 (1% HSA), 1% HSA

T1 sequence (P43220 24-463): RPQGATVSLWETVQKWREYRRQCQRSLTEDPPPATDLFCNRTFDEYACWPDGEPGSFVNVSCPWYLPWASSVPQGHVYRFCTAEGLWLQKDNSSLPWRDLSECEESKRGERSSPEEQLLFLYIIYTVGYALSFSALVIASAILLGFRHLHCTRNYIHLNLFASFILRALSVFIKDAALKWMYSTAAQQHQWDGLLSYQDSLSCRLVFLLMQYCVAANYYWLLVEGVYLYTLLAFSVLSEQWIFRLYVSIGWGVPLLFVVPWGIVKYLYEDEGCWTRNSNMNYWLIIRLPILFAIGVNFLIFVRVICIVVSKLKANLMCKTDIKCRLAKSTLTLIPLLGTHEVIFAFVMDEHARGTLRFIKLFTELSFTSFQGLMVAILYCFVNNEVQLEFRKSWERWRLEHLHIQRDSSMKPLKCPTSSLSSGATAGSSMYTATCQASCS

CC[C@H](C)[C@H](NC(=O)[C@H](Cc1ccccc1)NC(=O)[C@H](CCC(=O)O)NC(=O)[C@H](CCCCNC(=O)[C@@H](N)CCCCNC(=O)[C@@H](N)CCCCNC(=O)COCCOCCNC(=O)CC[C@H](NC(=O)CCCCCCCCCCOc1ccc(C(=O)O)cc1)C(=O)O)NC(=O)[C@H](C)NC(=O)[C@H](C)NC(=O)[C@H](CCC(N)=O)NC(=O)CNC(=O)[C@H](CCC(=O)O)NC(=O)[C@H](CC(C)C)NC(=O)[C@H](Cc1ccc(O)cc1)NC(=O)[C@H](CO)NC(=O)[C@H](CO)NC(=O)[C@@H](NC(=O)[C@H](CC(=O)O)NC(=O)[C@H](CO)NC(=O)[C@@H](NC(=O)[C@H](Cc1ccccc1)NC(=O)[C@@H](NC(=O)CNC(=O)[C@H](CCC(=O)O)NC(=O)C(C)(C)NC(=O)[C@@H](N)Cc1c[nH]cn1)[C@@H](C)O)[C@@H](C)O)C(C)C)C(=O)N[C@@H](C)C(=O)N[C@@H](Cc1c[nH]c2ccccc12)C(=O)N[C@@H](CC(C)C)C(=O)N[C@H](C(=O)N[C@@H](CCCNC(=N)N)C(=O)NCC(=O)N[C@@H](CCCNC(=N)N)C(=O)N[C@@H](CCCCNC(=O)[C@@H](N)CCCCNC(=O)[C@@H](N)CCCCNC(=O)COCCOCCNC(=O)CC[C@H](NC(=O)CCCCCCCCCCOc1ccc(C(=O)O)cc1)C(=O)O)C(=O)O)C(C)C [Example 34, N^ε26-[(2S)-2-amino-6-[[(2S)-2-amino-6-[[2-[2-[2-[[(4S)-4-carboxy-4-[11-(4-carboxyphenoxy)undecanoylamino]butanoyl]amino]ethoxy]ethoxy]acetyl]amino]hexanoyl]amino]hexanoyl], N^ε37-[(2S)-2-amino-6-[[(2S)-2-amino-6-[[2-[2-[2-[[(4S)-4-carboxy-4-[11-(4-carboxyphenoxy)undecanoylamino]butanoyl]amino]ethoxy]ethoxy]acetyl]amino]hexanoyl]amino]hexanoyl]-[Aib^8,Arg^34,Lys^37]-GLP-1-(7-37)-peptide]
IC50 [1, 3]: 45 nM | IC50 [1, 4]: 0.12 nM | EC50 [2, 5]: 0.0079 nM | EC50 [2, 6]: 0.059 nM | EC50/pM (ratio 1% HSA/0% HSA) [2]: 9.1

CC[C@H](C)[C@H](NC(=O)[C@H](Cc1ccccc1)NC(=O)[C@H](CCC(=O)O)NC(=O)[C@H](CCCCNC(=O)[C@@H](N)CCCCNC(=O)CC[C@H](NC(=O)CC[C@H](NC(=O)CCCCCCCCCCOc1ccc(C(=O)O)cc1)C(=O)O)C(=O)O)NC(=O)[C@H](C)NC(=O)[C@H](C)NC(=O)[C@H](CCC(N)=O)NC(=O)CNC(=O)[C@H](CCC(=O)O)NC(=O)[C@H](CC(C)C)NC(=O)[C@H](Cc1ccc(O)cc1)NC(=O)[C@H](CO)NC(=O)[C@H](CO)NC(=O)[C@@H](NC(=O)[C@H](CC(=O)O)NC(=O)[C@H](CO)NC(=O)[C@@H](NC(=O)[C@H](Cc1ccccc1)NC(=O)[C@@H](NC(=O)CNC(=O)[C@H](CCC(=O)O)NC(=O)C(C)(C)NC(=O)[C@@H](N)Cc1c[nH]cn1)[C@@H](C)O)[C@@H](C)O)C(C)C)C(=O)N[C@@H](C)C(=O)N[C@@H](Cc1c[nH]c2ccccc12)C(=O)N[C@@H](CC(C)C)C(=O)N[C@H](C(=O)N[C@@H](CCCNC(=N)N)C(=O)NCC(=O)N[C@@H](CCCNC(=N)N)C(=O)N[C@@H](CCCCNC(=O)[C@@H](N)CCCCNC(=O)CC[C@H](NC(=O)CC[C@H](NC(=O)CCCCCCCCCCOc1ccc(C(=O)O)cc1)C(=O)O)C(=O)O)C(=O)O)C(C)C [Example 40, N^ε26-[(2S)-2-amino-6-[[(4S)-4-carboxy-4-[[(4S)-4-carboxy-4-[11-(4-carboxyphenoxy)undecanoylamino]butanoyl]amino]butanoyl]amino]hexanoyl], N^ε37-[(2S)-2-amino-6-[[(4S)-4-carboxy-4-[[(4S)-4-carboxy-4-[11-(4-carboxyphenoxy)undecanoylamino]butanoyl]amino]butanoyl]amino]hexanoyl]-[Aib^8,Arg^34,Lys^37]-GLP-1-(7-37)-peptide]
IC50 [1, 3]: 195 nM | IC50 [1, 4]: 0.03 nM | EC50 [2, 5]: 0.0026 nM

CC[C@H](C)[C@H](NC(=O)[C@H](Cc1ccccc1)NC(=O)[C@H](CCC(=O)O)NC(=O)[C@H](CCCCNC(=O)[C@@H](N)CCCCNC(=O)CC[C@H](NC(=O)CC[C@H](NC(=O)CC[C@H](NC(=O)CCCCCCCCCCOc1ccc(C(=O)O)cc1)C(=O)O)C(=O)O)C(=O)O)NC(=O)[C@H](C)NC(=O)[C@H](C)NC(=O)[C@H](CCC(N)=O)NC(=O)CNC(=O)[C@H](CCC(=O)O)NC(=O)[C@H](CC(C)C)NC(=O)[C@H](Cc1ccc(O)cc1)NC(=O)[C@H](CO)NC(=O)[C@H](CO)NC(=O)[C@@H](NC(=O)[C@H](CC(=O)O)NC(=O)[C@H](CO)NC(=O)[C@@H](NC(=O)[C@H](Cc1ccccc1)NC(=O)[C@@H](NC(=O)CNC(=O)[C@H](CCC(=O)O)NC(=O)C(C)(C)NC(=O)[C@@H](N)Cc1c[nH]cn1)[C@@H](C)O)[C@@H](C)O)C(C)C)C(=O)N[C@@H](C)C(=O)N[C@@H](Cc1c[nH]c2ccccc12)C(=O)N[C@@H](CC(C)C)C(=O)N[C@H](C(=O)N[C@@H](CCCNC(=N)N)C(=O)NCC(=O)N[C@@H](CCCNC(=N)N)C(=O)N[C@@H](CCCCNC(=O)[C@@H](N)CCCCNC(=O)CC[C@H](NC(=O)CC[C@H](NC(=O)CC[C@H](NC(=O)CCCCCCCCCCOc1ccc(C(=O)O)cc1)C(=O)O)C(=O)O)C(=O)O)C(=O)O)C(C)C [Example 39, N^ε26-[(2S)-2-amino-6-[[(4S)-4-carboxy-4-[[(4S)-4-carboxy-4-[[(4S)-4-carboxy-4-[11-(4-carboxyphenoxy)undecanoylamino]butanoyl]amino]butanoyl]amino]butanoyl]amino]hexanoyl], N^ε37-[(2S)-2-amino-6-[[(4S)-4-carboxy-4-[[(4S)-4-carboxy-4-[[(4S)-4-carboxy-4-[11-(4-carboxyphenoxy)undecanoylamino]butanoyl]amino]butanoyl]amino]butanoyl]amino]hexanoyl]-[Aib^8,Arg^34,Lys^37]-GLP-1-(7-37)-peptide]
IC50 [1, 3]: 131 nM | IC50 [1, 4]: 0.06 nM | EC50 [2, 5]: 0.0037 nM | EC50 [2, 6]: 0.14 nM | EC50/pM (ratio 1% HSA/0% HSA) [2]: 38
